Results reported in ChEMBL document CHEMBL1933021, “Novel and selective spiroindoline-based inhibitors of Sky kinase” (Bioorg Med Chem Lett, 2012).

Tests used:
[1] = Inhibition of p38
[2] = biological target: Serine/threonine-protein kinase PAK 4 (Homo sapiens, UniProt O96013); assay: Inhibition of Pak4
[3] = biological target: T1, Tyrosine-protein kinase receptor UFO (Homo sapiens, UniProt P30530); assay: Inhibition of Axl
T1 sequence (P30530 whole entry): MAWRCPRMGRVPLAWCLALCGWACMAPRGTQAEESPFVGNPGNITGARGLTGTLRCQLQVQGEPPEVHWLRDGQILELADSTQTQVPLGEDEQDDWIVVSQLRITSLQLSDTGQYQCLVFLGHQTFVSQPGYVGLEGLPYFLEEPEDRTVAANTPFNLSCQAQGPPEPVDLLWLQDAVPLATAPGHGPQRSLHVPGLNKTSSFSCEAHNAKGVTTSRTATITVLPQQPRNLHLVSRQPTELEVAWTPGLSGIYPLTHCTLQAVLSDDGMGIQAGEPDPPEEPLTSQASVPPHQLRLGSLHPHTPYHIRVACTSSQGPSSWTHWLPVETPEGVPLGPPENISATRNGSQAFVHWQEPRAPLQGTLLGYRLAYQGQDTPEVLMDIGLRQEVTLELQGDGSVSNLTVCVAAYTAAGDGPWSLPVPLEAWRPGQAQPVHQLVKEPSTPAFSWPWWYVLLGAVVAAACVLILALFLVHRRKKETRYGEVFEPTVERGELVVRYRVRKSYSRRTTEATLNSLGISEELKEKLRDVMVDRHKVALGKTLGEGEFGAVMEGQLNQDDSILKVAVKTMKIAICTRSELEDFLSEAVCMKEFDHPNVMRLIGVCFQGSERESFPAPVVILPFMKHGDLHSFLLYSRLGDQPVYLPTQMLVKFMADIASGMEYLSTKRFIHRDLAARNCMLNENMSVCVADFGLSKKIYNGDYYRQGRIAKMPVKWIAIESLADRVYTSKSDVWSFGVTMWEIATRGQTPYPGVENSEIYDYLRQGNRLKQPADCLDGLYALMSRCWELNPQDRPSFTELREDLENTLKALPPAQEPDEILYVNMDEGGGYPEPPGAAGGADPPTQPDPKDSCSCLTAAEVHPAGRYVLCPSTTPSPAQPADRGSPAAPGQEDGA

[4] = biological target: Proto-oncogene tyrosine-protein kinase Src (Homo sapiens, UniProt P12931); assay: Inhibition of Src
[5] = biological target: T2, Tyrosine-protein kinase Mer (Homo sapiens, UniProt Q12866); assay: Inhibition of Mer
T2 sequence (Q12866 whole entry): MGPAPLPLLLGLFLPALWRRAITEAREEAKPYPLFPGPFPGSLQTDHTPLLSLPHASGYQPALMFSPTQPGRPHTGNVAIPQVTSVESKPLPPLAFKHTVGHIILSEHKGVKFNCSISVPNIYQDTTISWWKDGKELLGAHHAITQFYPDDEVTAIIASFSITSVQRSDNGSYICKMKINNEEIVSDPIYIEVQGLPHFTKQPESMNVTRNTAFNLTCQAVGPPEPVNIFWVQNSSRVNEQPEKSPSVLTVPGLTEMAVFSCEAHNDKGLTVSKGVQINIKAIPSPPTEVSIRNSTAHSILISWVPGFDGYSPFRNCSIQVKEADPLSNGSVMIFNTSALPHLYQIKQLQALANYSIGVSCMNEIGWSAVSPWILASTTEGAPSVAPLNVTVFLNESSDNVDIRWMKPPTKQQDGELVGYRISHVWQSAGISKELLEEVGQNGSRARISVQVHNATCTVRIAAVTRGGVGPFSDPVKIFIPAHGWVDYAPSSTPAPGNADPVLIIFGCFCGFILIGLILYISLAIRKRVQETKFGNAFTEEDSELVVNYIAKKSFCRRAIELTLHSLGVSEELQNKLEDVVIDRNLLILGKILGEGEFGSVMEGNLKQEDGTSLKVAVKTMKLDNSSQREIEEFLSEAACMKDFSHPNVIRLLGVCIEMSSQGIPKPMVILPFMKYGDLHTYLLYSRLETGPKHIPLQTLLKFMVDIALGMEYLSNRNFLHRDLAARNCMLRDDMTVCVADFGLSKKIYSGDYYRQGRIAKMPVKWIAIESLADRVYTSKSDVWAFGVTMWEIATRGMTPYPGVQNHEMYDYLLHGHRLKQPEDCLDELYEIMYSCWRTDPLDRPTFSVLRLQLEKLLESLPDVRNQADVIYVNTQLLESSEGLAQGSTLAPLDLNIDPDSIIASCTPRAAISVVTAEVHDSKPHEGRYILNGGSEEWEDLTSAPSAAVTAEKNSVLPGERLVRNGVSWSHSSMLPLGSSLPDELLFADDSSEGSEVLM

[6] = biological target: Tyrosine-protein kinase ABL1 (Homo sapiens, UniProt P00519); assay: Inhibition of Abl
[7] = biological target: Tyrosine-protein kinase Lck (Homo sapiens, UniProt P06239); assay: Inhibition of Lck
[8] = biological target: Glycogen synthase kinase-3 beta (Homo sapiens, UniProt P49841); assay: Inhibition of Gsk3beta
[9] = Inhibition of PKA
[10] = biological target: T3, Inhibitor of nuclear factor kappa-B kinase subunit epsilon (Homo sapiens, UniProt Q14164); assay: Inhibition of IKKi
T3 sequence (Q14164 whole entry): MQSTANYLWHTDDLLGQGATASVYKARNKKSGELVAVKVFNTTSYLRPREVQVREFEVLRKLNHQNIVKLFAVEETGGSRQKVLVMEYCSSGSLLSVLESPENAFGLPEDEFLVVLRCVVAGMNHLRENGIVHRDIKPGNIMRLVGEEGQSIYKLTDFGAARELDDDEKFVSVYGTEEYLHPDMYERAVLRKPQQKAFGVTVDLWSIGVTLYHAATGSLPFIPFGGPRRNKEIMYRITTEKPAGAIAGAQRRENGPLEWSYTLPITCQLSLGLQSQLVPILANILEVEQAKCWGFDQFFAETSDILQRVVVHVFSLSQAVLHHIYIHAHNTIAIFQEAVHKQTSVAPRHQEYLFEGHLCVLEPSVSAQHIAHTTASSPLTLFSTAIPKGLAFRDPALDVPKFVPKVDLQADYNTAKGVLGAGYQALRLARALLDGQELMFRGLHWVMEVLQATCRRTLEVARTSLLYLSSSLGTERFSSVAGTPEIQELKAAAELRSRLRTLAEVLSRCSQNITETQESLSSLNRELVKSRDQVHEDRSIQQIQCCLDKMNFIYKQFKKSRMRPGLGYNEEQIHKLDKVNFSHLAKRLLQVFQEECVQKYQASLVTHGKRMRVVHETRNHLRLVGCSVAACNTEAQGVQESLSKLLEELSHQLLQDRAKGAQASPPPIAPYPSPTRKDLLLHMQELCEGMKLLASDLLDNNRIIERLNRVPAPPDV

[11] = biological target: MAP kinase-activated protein kinase 2 (Homo sapiens, UniProt P49137); assay: Inhibition of MAPKAP-2
[12] = biological target: Fibroblast growth factor receptor 1 (Homo sapiens, UniProt P11362); assay: Inhibition of FGFR1
[13] = biological target: Serine/threonine-protein kinase pim-2 (Homo sapiens, UniProt Q9P1W9); assay: Inhibition of Pim-2
Serine/threonine-protein kinase pim-2, sequence (Q9P1W9 whole entry): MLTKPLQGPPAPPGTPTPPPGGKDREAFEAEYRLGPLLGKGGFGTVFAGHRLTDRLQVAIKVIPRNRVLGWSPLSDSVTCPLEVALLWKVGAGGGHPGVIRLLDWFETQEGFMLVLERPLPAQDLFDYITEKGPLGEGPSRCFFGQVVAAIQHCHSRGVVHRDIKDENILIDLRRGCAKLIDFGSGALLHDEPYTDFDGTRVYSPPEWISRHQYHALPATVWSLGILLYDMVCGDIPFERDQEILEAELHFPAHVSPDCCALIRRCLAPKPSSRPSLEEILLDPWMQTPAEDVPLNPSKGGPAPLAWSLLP

Serine/threonine-protein kinase PAK 4, sequence (O96013 whole entry): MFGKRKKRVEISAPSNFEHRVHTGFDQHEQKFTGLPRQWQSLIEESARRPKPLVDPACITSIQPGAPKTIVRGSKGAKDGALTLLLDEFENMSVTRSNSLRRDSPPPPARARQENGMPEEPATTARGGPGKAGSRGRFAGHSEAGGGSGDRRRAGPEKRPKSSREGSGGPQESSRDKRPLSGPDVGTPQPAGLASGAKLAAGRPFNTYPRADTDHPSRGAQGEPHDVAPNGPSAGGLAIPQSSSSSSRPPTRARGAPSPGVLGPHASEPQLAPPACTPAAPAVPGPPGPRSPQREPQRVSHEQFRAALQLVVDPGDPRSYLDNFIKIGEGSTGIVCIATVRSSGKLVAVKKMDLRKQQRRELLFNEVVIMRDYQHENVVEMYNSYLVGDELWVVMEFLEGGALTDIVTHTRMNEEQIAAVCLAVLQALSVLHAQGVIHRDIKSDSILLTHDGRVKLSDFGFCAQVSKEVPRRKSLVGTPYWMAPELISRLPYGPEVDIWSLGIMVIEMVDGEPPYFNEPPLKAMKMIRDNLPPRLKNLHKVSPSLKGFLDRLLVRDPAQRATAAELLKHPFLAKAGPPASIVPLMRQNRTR
Tyrosine-protein kinase ABL1, sequence (P00519 whole entry): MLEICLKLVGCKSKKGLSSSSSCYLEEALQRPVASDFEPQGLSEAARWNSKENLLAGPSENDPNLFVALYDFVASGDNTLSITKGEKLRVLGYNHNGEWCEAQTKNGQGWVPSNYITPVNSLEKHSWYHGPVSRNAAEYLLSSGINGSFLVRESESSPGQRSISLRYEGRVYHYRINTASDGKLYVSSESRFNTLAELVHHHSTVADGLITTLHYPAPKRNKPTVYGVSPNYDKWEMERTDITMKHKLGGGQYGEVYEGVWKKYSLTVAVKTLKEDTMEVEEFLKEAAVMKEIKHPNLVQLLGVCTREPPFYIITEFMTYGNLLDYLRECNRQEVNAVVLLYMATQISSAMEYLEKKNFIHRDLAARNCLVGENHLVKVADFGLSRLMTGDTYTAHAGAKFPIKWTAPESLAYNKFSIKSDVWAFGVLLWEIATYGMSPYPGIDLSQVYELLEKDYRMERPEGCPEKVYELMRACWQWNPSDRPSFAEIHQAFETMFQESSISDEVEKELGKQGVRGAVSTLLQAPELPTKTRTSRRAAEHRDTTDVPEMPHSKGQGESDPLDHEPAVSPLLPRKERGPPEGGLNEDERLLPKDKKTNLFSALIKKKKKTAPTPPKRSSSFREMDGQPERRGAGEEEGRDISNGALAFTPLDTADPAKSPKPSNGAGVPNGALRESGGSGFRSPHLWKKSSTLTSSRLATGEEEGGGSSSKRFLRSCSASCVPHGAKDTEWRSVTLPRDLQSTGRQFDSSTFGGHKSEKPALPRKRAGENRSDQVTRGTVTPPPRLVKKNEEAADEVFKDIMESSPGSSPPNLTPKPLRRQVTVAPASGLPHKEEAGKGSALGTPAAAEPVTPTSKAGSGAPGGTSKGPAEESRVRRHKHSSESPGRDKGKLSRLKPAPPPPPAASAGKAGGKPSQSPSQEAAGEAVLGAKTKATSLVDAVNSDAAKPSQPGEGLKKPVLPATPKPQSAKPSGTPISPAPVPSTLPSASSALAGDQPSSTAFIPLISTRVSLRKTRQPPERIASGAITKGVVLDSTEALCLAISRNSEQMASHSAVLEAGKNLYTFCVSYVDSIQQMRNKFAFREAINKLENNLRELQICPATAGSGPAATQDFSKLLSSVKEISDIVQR
Tyrosine-protein kinase Lck, sequence (P06239 whole entry): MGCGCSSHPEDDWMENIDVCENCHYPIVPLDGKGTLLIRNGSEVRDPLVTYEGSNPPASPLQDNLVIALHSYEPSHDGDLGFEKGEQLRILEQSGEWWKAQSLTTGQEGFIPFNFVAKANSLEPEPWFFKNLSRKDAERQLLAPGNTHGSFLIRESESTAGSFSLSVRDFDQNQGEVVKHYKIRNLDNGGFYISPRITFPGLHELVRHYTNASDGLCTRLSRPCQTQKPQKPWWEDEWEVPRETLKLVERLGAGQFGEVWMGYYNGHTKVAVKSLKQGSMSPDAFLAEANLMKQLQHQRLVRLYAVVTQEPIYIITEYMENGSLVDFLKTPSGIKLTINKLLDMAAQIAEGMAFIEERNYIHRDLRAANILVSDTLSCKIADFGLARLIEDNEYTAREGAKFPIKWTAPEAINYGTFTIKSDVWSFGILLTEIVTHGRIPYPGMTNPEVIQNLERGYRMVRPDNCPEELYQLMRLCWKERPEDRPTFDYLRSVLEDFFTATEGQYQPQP
MAP kinase-activated protein kinase 2, sequence (P49137 whole entry): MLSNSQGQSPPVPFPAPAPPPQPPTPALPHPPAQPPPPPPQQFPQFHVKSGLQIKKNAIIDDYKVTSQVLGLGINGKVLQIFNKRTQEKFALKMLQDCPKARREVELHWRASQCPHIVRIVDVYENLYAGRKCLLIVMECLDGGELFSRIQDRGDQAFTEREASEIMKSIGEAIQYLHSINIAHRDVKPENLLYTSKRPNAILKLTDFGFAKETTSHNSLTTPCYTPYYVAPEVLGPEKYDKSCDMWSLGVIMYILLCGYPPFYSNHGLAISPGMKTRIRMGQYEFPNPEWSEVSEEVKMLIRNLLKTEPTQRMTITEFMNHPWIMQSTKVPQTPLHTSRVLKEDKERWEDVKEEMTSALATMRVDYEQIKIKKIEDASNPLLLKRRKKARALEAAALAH
Glycogen synthase kinase-3 beta, sequence (P49841 whole entry): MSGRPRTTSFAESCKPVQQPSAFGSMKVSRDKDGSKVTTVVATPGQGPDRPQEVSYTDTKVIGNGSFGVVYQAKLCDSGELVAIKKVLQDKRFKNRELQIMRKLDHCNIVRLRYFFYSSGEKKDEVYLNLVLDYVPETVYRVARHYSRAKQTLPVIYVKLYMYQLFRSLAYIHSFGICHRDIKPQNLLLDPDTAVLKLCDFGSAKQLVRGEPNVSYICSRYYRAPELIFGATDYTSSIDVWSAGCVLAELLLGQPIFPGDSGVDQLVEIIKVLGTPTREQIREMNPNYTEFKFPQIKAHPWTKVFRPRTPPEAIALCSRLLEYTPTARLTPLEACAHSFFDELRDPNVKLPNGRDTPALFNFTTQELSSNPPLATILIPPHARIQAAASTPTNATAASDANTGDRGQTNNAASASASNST
Fibroblast growth factor receptor 1, sequence (P11362 whole entry): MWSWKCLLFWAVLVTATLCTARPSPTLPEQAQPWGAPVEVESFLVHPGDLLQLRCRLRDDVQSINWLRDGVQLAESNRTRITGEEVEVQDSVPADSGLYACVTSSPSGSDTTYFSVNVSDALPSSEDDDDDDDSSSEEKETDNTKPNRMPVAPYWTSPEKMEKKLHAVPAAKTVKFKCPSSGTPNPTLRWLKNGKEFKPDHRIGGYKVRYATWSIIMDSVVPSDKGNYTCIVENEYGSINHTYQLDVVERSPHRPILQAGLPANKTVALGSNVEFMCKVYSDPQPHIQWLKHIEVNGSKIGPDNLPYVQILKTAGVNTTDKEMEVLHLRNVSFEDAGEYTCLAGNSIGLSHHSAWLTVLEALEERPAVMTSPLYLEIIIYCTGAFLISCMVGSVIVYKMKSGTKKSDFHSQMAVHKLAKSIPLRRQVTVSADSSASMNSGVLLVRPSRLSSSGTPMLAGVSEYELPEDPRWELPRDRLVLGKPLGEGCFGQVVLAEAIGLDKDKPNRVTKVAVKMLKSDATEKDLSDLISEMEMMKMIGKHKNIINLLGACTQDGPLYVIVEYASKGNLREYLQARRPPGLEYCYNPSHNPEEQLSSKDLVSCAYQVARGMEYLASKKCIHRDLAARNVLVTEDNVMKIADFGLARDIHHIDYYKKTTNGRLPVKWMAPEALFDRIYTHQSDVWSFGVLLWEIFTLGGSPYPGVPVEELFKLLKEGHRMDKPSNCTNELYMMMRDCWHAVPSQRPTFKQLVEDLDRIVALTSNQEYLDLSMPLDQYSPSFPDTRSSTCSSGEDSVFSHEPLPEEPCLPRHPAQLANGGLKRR
Proto-oncogene tyrosine-protein kinase Src, sequence (P12931 2-536 limits assumed): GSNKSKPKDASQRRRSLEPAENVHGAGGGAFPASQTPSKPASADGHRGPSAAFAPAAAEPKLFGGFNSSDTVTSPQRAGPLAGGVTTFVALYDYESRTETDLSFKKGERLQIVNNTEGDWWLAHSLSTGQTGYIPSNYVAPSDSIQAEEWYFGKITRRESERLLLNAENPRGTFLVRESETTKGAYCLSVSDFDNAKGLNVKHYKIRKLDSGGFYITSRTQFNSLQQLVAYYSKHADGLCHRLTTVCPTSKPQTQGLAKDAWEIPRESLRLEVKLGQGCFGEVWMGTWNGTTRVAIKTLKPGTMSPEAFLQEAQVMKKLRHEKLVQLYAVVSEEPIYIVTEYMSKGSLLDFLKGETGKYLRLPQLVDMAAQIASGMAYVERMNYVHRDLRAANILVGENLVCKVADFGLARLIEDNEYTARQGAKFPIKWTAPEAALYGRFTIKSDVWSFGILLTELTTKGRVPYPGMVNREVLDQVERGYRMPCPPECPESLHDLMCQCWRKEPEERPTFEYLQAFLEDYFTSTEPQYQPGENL

SMILES	IC50 [1] [µM]	IC50 [2] [µM]	IC50 [3] [µM]	IC50 [4] [µM]	IC50 [5] [nM]	IC50 [6] [µM]	IC50 [7] [µM]	IC50 [8] [µM]	IC50 [9] [µM]	IC50 [10] [µM]	IC50 [11] [µM]	IC50 [12] [µM]	IC50 [13] [µM]
O=C(c1cc2ccc(F)cc2[nH]1)N1C[C@]2(CCN(C3CCNC3)C2)c2ccccc21 (stereo partly specified)	> 30	> 30	5.25	> 30	2440	> 30	> 30	> 30	> 30	> 30	> 30	> 30	> 30
C[C@@H]1CCC(N2CC[C@]3(CN(C(=O)c4cc5ccccc5[nH]4)c4ccccc43)C2)CN1 (stereo partly specified)	> 30	> 30	18.4	> 30	2340	> 30	> 30	> 30	> 30	> 30	> 30	> 30	> 30
C[C@@H]1CCC(N2CC[C@]3(CN(C(=O)c4cc5ccc(F)cc5[nH]4)c4ccccc43)C2)CN1 (stereo partly specified)	> 30	> 30	23.8	> 30	970	> 30		> 30	28.6	> 30	> 30	22.7	> 30
O=C(c1cc2cc(F)ccc2[nH]1)N1C[C@]2(CCN(C3CCCNC3)C2)c2ccccc21 (stereo partly specified)	> 30	> 30	19.4	> 30	6930	> 30	> 30	> 30	> 30	> 30	> 30	> 30	> 30
